Molecular target: T1, androgen receptor (AR) splicing variant AR-v7 (Homo sapiens, UniProt P10275)
T1 construct: The degradation activity of compounds on AR-v7 in 22RV1 cells; host or cells: 22RV1 cells
T1 sequence (P10275 1-644 isoform P10275-3): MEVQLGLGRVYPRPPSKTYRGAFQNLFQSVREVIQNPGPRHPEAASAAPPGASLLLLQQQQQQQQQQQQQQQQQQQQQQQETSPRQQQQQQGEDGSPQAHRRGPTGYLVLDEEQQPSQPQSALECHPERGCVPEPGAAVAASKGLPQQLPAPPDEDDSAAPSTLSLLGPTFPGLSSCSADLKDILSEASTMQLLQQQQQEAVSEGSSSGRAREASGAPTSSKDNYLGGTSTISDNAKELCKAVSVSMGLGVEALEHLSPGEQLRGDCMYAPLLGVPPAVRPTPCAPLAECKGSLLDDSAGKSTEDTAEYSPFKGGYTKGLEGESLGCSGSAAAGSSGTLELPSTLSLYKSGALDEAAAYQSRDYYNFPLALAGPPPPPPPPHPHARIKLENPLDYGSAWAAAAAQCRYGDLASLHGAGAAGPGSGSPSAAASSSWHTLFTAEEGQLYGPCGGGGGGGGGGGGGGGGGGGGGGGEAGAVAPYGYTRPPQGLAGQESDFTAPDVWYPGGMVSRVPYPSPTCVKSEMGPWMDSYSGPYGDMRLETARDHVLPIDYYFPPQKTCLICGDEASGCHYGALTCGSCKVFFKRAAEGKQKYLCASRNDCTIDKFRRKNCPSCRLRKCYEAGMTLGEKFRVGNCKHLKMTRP
Assay: Degradation activity on androgen receptor splicing variant AR-v7 in 22RV1 cells (ELISA)
Format: cell-based
Details: AR-v7 degradation in 22RV1 cells, 48 h

Compound | DC50 (class symbols) [nM] | DC50 (numeric values) [nM]
CN(C)C1CCCN(c2nccc(COc3ccc(C(C)(C)c4ccc(O[C@H]5C[C@@H](Nc6ccc7c(c6)C(=O)N(C6CCC(=O)NC6=O)C7=O)C5)cc4)cc3)n2)C1 (stereo partly drawn) [Example 404] | 11 to 100 | 
CN1CC(Oc2nccc(COc3ccc(C(C)(C)c4ccc(O[C@H]5C[C@@H](Nc6ccc7c(c6)C(=O)N(C6CCC(=O)NC6=O)C7=O)C5)cc4)cc3)n2)C1 (stereo partly drawn) [Example 407] | 11 to 100 | 
C[C@@H]1CN(c2nccc(COc3ccc(C(C)(C)c4ccc(O[C@H]5C[C@@H](Nc6ccc7c(c6)C(=O)N(C6CCC(=O)NC6=O)C7=O)C5)cc4)cc3)n2)[C@H](C)CN1 (stereo partly drawn) [Example 408] | 11 to 100 | 
Cn1nccc1-c1nccc(COc2ccc(C(C)(C)c3ccc(O[C@H]4C[C@@H](Nc5ccc6c(c5)C(=O)N(C5CCC(=O)NC5=O)C6=O)C4)cc3)cc2)n1 (stereo partly drawn) [Example 417] | 11 to 100 | 
Cn1cc(-c2cccc(COc3ccc(C(C)(C)c4ccc(O[C@H]5C[C@@H](Nc6ccc7c(c6)C(=O)N(C6CCC(=O)NC6=O)C7=O)C5)cc4)cc3)n2)cn1 (stereo partly drawn) [Example 418] | 11 to 100 | 
C[C@@H]1CN(c2nccc(COc3ccc(C(C)(C)c4ccc(O[C@H]5C[C@@H](Nc6ccc7c(c6)C(=O)N(C6CCC(=O)NC6=O)C7=O)C5)cc4)cc3)n2)C[C@H](C)N1 (stereo partly drawn) [Example 433, 5-(((1s,3s)-3-(4-(2-(4-((2-((3s,5r)-3,5-dimethylpiperazin-1-yl)pyrimidin-4-yl)methoxy)phenyl)propan-2-yl)phenoxy)cyclobutyl)amino)-2-(2,6-dioxopiperidin-3-yl)isoindolin-1,3-dione] | 11 to 100 | 
CC(C)(c1ccc(OCCCCCCCCOCCCCNc2ccc3c(c2)C(=O)N(C2CCC(=O)NC2=O)C3=O)cc1)c1ccc(OCc2ccnc(-n3cccn3)n2)cc1 (stereo not drawn) [Example 437, 5-((4-((8-(4-(2-(4-((2-(1H-pyrazol-1-yl)pyrimidin-4-yl)methoxy)phenyl)propan-2-yl)phenoxy)octyl)oxy)butyl)amino)-2-(2,6-dioxopiperidin-3-yl)isoindolin-1,3-dione] |  | > 10000
CCC(CC)(c1ccc(OCCCNc2ccc3c(c2)C(=O)N(C2CCC(=O)NC2=O)C3=O)cc1)c1ccc(OCc2ccnc(C(C)=O)n2)cc1 (stereo not drawn) [Example 439, 5-((3-(4-(3-(4-((2-acetylpyrimidin-4-yl)methoxy)phenyl)pentan-3-yl)phenoxy)propyl)amino)-2-(2,6-dioxopiperidine-3-amino)isoindolin-1,3-dione] | 11 to 100 | 
CC(C)(c1ccc(OCCCNc2ccc3c(c2)C(=O)N(C2CCC(=O)NC2=O)C3=O)cc1)c1ccc(OCc2nc(C(N)=O)cs2)cc1 (stereo not drawn) [Example 441, 2-((4-(2-(4-(3-((2-(2,6-dioxopiperidin-3-yl)-1,3-dioxoisoindolin-5-yl)amino)propoxy)phenyl)propan-2-yl)phenoxy)methyl) thiazol-4-carbonylamine] | 11 to 100 | 
CC(C)(c1ccc(OCCCNc2ccc3c(c2)C(=O)N(C2CCC(=O)NC2=O)C3=O)cc1)c1ccc(OCc2nc3ncccc3o2)cc1 (stereo not drawn) [Example 442, 2-(2,6-dioxopiperidin-3-yl)-5-((3-(4-(2-(4-(oxazolo[4,5-b]pyridin-2-ylmethoxy)phenyl)propan-2-yl)phenoxy)propyl)amino)isoindolin-1,3-dione] | 11 to 100 | 
CC(C)(c1ccc(OCCCNc2cccc3c2C(=O)N(C2CCC(=O)NC2=O)C3=O)cc1)c1ccc(OCc2nc3ncccc3o2)cc1 (stereo not drawn) [Example 443, 2-(2,6-dioxopiperidin-3-yl)-4-((3-(4-(2-(4-(oxazolo[4,5-b]pyridin-2-ylmethoxy)phenyl)propan-2-yl)phenoxy)propyl)amino)isoindolin-1,3-dione] | 11 to 100 | 
Cn1nc(C(F)(F)F)cc1-c1nccc(COc2ccc(C(C)(C)c3ccc(O[C@H]4C[C@@H](Nc5ccc6c(c5)C(=O)N(C5CCC(=O)NC5=O)C6=O)C4)cc3)cc2)n1 (stereo partly drawn) [Example 462] | 101 to 1000 | 
CCN1CC(Oc2nccc(COc3ccc(C(C)(C)c4ccc(O[C@H]5C[C@@H](Nc6ccc7c(c6)C(=O)N(C6CCC(=O)NC6=O)C7=O)C5)cc4)cc3)n2)C1 (stereo partly drawn) [Example 466] | 11 to 100 | 
CC(C)(c1ccc(Oc2ccnc(-n3nccn3)n2)cc1)c1ccc(O[C@H]2C[C@H](Nc3ccc4c(c3)C(=O)N(C3CCC(=O)NC3=O)C4=O)C2)cc1 (stereo partly drawn) [Example 469, 5-(((1r,3r)-3-(4-(2-(4-((2-(2H-1,2,3-triazol-2-yl)pyrimidin-4-yl)oxy)phenyl)propan-2-yl)phenoxy)cyclobutyl)amino)-2-(2,6-dioxopiperidin-3-yl)isoindolin-1,3-dione] | 11 to 100 | 
Cc1nnc(-c2ncc(Oc3ccc(C(C)(C)c4ccc(O[C@H]5C[C@@H](Nc6ccc7c(c6)C(=O)N(C6CCC(=O)NC6=O)C7=O)C5)cc4)cc3)cn2)o1 (stereo partly drawn) [Example 484] | 11 to 100 | 

Now from value to compound:

DC50 (class symbols) [nM] | DC50 (numeric values) [nM] | Compound
11 to 100 |  | C[C@@H]1CN(c2nccc(COc3ccc(C(C)(C)c4ccc(O[C@H]5C[C@@H](Nc6ccc7c(c6)C(=O)N(C6CCC(=O)NC6=O)C7=O)C5)cc4)cc3)n2)[C@H](C)CN1C (stereo partly drawn) [Example 409]
11 to 100 |  | C[C@@H]1CN[C@@H](C)CN1c1nccc(COc2ccc(C(C)(C)c3ccc(O[C@H]4C[C@@H](Nc5ccc6c(c5)C(=O)N(C5CCC(=O)NC5=O)C6=O)C4)cc3)cc2)n1 (stereo partly drawn) [Example 411]
11 to 100 |  | C[C@@H]1CN(C)[C@@H](C)CN1c1nccc(COc2ccc(C(C)(C)c3ccc(O[C@H]4C[C@@H](Nc5ccc6c(c5)C(=O)N(C5CCC(=O)NC5=O)C6=O)C4)cc3)cc2)n1 (stereo partly drawn) [Example 412]
11 to 100 |  | Cc1nc(-c2cccc(Oc3ccc(C(C)(C)c4ccc(O[C@H]5C[C@@H](Nc6ccc7c(c6)C(=O)N(C6CCC(=O)NC6=O)C7=O)C5)cc4)cc3)n2)no1 (stereo partly drawn) [Example 422]
11 to 100 |  | CC(C)(c1ccc(Oc2ccc(N3CC(N4CC(F)(F)C4)C3)nn2)cc1)c1ccc(O[C@H]2C[C@H](Nc3ccc4c(c3)C(=O)N(C3CCC(=O)NC3=O)C4=O)C2)cc1 (stereo partly drawn) [Example 424]
1000 to 5000 |  | CC(C)(c1ccc(OCCCNc2cccc3c2C(=O)N(C2CCC(=O)NC2=O)C3=O)cc1)c1ccc(OCc2cnc(N3CCOCC3)s2)cc1 (stereo not drawn) [Example 435, 2-(2,6-dioxopiperidin-3-yl)-4-((3-(4-(2-(4-((2-morpholinethiazol-5-yl)methoxy)phenyl)propan-2-yl)phenoxy)propyl)amino)isoindolin-1,3-dione]
11 to 100 |  | CC(C)(c1ccc(OCCCNc2ccc3c(c2)C(=O)N(C2CCC(=O)NC2=O)C3=O)cc1)c1ccc(OCc2ccnc(N3CCCC3)n2)cc1 (stereo not drawn) [Example 440, 2-(2,6-dioxopiperidin-3-yl)-5-((3-(4-(2-(4-((2-(pyrrolidin-1-yl)pyrimidin-4-yl)methoxy)phenyl)propan-2-yl)phenoxy)propyl)amino)isoindolin-1,3-dione]
11 to 100 |  | CC1(CNc2nccc(COc3ccc(C(C)(C)c4ccc(O[C@H]5C[C@@H](Nc6ccc7c(c6)C(=O)N(C6CCC(=O)NC6=O)C7=O)C5)cc4)cc3)n2)CNC1 (stereo partly drawn) [Example 457]
11 to 100 |  | CC1(C)CN(c2nccc(COc3ccc(C(C)(C)c4ccc(O[C@H]5C[C@@H](Nc6ccc7c(c6)C(=O)N(C6CCC(=O)NC6=O)C7=O)C5)cc4)cc3)n2)CCN1 (stereo partly drawn) [Example 458, 5-(((1s,3s)-3-(4-(2-(4-((2-(3,3-dimethylpiperazin-1-yl)pyrimidin-4-yl)methoxy)phenyl)propan-2-yl)phenoxy)cyclobutyl)amino)-2-(2,6-dioxopiperidin-3-yl)isoindolin-1,3-dione]
11 to 100 |  | CC(C)(c1ccc(Oc2ccnc(N3CC4(COC4)C3)n2)cc1)c1ccc(O[C@H]2C[C@@H](Nc3ccc4c(c3)C(=O)N(C3CCC(=O)NC3=O)C4=O)C2)cc1 (stereo partly drawn) [Example 459]
11 to 100 |  | CC(C)(c1ccc(OCc2ccnc(OC3CN(C4CC4)C3)n2)cc1)c1ccc(O[C@H]2C[C@@H](Nc3ccc4c(c3)C(=O)N(C3CCC(=O)NC3=O)C4=O)C2)cc1 (stereo partly drawn) [Example 467, 5-(((1s,3s)-3-(4-(2-(4-((2-((1-cyclopropylazetidin-3-yl)oxy)pyrimidin-4-yl)methoxy)phenyl)propan-2-yl)phenoxy)cyclobutyl)amino)-2-(2,6-dioxopiperidin-3-yl)isoindolin-1,3-dione]
11 to 100 |  | Cc1noc(-c2cccc(COc3ccc(C(C)(C)c4ccc(O[C@H]5C[C@@H](Nc6ccc7c(c6)C(=O)N(C6CCC(=O)NC6=O)C7=O)C5)cc4)cc3)n2)n1 (stereo partly drawn) [Example 472]
11 to 100 |  | Cc1nc(-c2ccnc(Oc3ccc(C(C)(C)c4ccc(O[C@H]5C[C@H](Nc6ccc7c(c6)C(=O)N(C6CCC(=O)NC6=O)C7=O)C5)cc4)cc3)c2)no1 (stereo partly drawn) [Example 474]
11 to 100 |  | CC(C)(c1ccc(Oc2cnc(CN3CC(F)(F)C3)nc2)cc1)c1ccc(OC2CC(Nc3ccc4c(c3)C(=O)N(C3CCC(=O)NC3=O)C4=O)C2)cc1 (stereo not drawn) [Example 479, 5-(((1r,3r)-3-(4-(2-(4-((2-((3,3-difluoroazetidin-1-yl)methyl)pyrimidin-5-yl)oxy)phenyl)propan-2-yl)phenoxy)cyclobutyl)amino)-2-(2,6-dioxopiperidin-3-yl)isoindolin-1,3-dione]
11 to 100 |  | Cc1nc(-c2ccnc(Oc3ccc(C(C)(C)c4ccc(O[C@H]5C[C@@H](Nc6ccc7c(c6)C(=O)N(C6CCC(=O)NC6=O)C7=O)C5)cc4)cc3)c2)no1 (stereo partly drawn) [Example 481]

Source: patent publication US20250051347A1, “BIFUNCTIONAL CHIMERIC HETEROCYCLIC COMPOUND AND USE THEREOF AS ANDROGEN RECEPTOR DEGRADER” (Hinova Pharmaceuticals, Inc., priority 2021, published 2025)
